Results from patent US20260020570A1, “HERBICIDAL COMBINATIONS AND A METHOD FOR CONTROLLING UNDESIRED VEGETATION” (UPL Mauritius Limited, priority 2022, published 2026).

Tested on: Eleusine indica
Experiment: Post-emergence herbicidal efficacy of L-glufosinate ammonium, additional herbicides and their combinations; expected efficacy by the Colby method
Format: in vivo
Method: The following products were used for testing the weed control efficacy of present herbicidal combinations.
Evaluation of Post-Emergence Herbicidal Activity:
Methodology: Trials were carried out to evaluate the efficacy of the combinations comprising L-glufosinate ammonium and the additional herbicides on Eleusine genus weeds.
All treatments were in 4 replications per treatment with a spray volume of about 150 L/ha.
Efficacy Evaluation: The expected efficacy of a combination comprising L-glufosinate ammonium and additional herbicides was calculated using the well-established Colby method.
In the Colby method, the expected (or predicted) response of a combination of herbicides is calculated by taking the product of the observed response for each individual component of the combination when applied alone, divided by 100, and subtracting this value from the sum of the observed response for each component when applied alone. An unexpected enhancement in efficacy of the combination is then determined by comparing the observed response of the combination to the expected (or predicted) response as calculated from the observed response of each individual component alone. […] The Colby method requires only a single dose of each herbicide applied alone and the mixture of both doses. The formula used to calculate the expected efficacy (EE) which was compared with the observed efficacy (OE) to determine the efficacy of the present disclosure is explained hereinbelow:
The expected efficacy for a combination of two active ingredients is as follows:
[formula] • wherein, • A=Observed efficacy of active ingredient A at the same concentration as used in the mixture. • B=Observed efficacy of the active ingredient B at the same concentration as used in the mixture.

## C[N+](C)(C)CCO.O=C([O-])COc1ccc(Cl)cc1Cl [2,4-D choline]
7 DAA, Table 18
  Observed efficacy (%) of 2,4-D choline (228 g a.i./ha): 10%
14 DAA, Table 18
  Observed efficacy (%) of 2,4-D choline (228 g a.i./ha): 10%
21 DAA, Table 18
  Observed efficacy (%) of 2,4-D choline (228 g a.i./ha): 10%
28 DAA, Table 18
  Observed efficacy (%) of 2,4-D choline (228 g a.i./ha): 5%

## COc1c(Cl)ccc(Cl)c1C(=O)O [Dicamba]
28 DAA, Table 14
  Observed efficacy (%) of Dicamba (228 g a.i./ha): 5%

## Cc1ccc2c(c1)[C@H](Nc1nc(N)nc(C(C)F)n1)[C@@H](C)C2 (some centres unmarked) [Indaziflam]
7 DAA, Table 9
  Observed efficacy (%) of Indaziflam (50 g a.i./ha): 60%
14 DAA, Table 9
  Observed efficacy (%) of Indaziflam (50 g a.i./ha): 80%
21 DAA, Table 9
  Observed efficacy (%) of Indaziflam (50 g a.i./ha): 85%
28 DAA, Table 9
  Observed efficacy (%) of Indaziflam (50 g a.i./ha): 85%

## CS(=O)(=O)c1cc(C(F)(F)F)ccc1C(=O)c1cnoc1C1CC1 [Isoxaflutole]
7 DAA, Table 10
  Observed efficacy (%) of Isoxaflutole (60 g a.i./ha): 40%
14 DAA, Table 10
  Observed efficacy (%) of Isoxaflutole (60 g a.i./ha): 75%
21 DAA, Table 10
  Observed efficacy (%) of Isoxaflutole (60 g a.i./ha): 85%

## CP(=O)(O)CC[C@H](N)C(=O)O.N [L-glufosinate ammonium]
3 DAA, Table 15
  Observed efficacy (%) of L-glufosinate ammonium (150 g a.i./ha): 40%
7 DAA, Table 8
  Observed efficacy (%) of L-glufosinate ammonium (150 g a.i./ha): 35%
7 DAA, Table 9
  Observed efficacy (%) of L-glufosinate ammonium (150 g a.i./ha): 35%
7 DAA, Table 10
  Observed efficacy (%) of L-glufosinate ammonium (150 g a.i./ha): 35%
7 DAA, Table 11
  Observed efficacy (%) of L-glufosinate ammonium (150 g a.i./ha): 35%
7 DAA, Table 12
  Observed efficacy (%) of L-glufosinate ammonium (150 g a.i./ha): 40%
7 DAA, Table 13
  Observed efficacy (%) of L-glufosinate ammonium (150 g a.i./ha): 35%
7 DAA, Table 15
  Observed efficacy (%) of L-glufosinate ammonium (150 g a.i./ha): 50%
7 DAA, Table 18
  Observed efficacy (%) of L-glufosinate ammonium (150 g a.i./ha): 70%
14 DAA, Table 8
  Observed efficacy (%) of L-glufosinate ammonium (150 g a.i./ha): 25%
14 DAA, Table 9
  Observed efficacy (%) of L-glufosinate ammonium (150 g a.i./ha): 25%
14 DAA, Table 10
  Observed efficacy (%) of L-glufosinate ammonium (150 g a.i./ha): 25%
14 DAA, Table 11
  Observed efficacy (%) of L-glufosinate ammonium (150 g a.i./ha): 30%
14 DAA, Table 12
  Observed efficacy (%) of L-glufosinate ammonium (150 g a.i./ha): 30%
14 DAA, Table 13
  Observed efficacy (%) of L-glufosinate ammonium (150 g a.i./ha): 30%
14 DAA, Table 15
  Observed efficacy (%) of L-glufosinate ammonium (150 g a.i./ha): 40%
14 DAA, Table 18
  Observed efficacy (%) of L-glufosinate ammonium (150 g a.i./ha): 65%
21 DAA, Table 8
  Observed efficacy (%) of L-glufosinate ammonium (150 g a.i./ha): 20%
21 DAA, Table 9
  Observed efficacy (%) of L-glufosinate ammonium (150 g a.i./ha): 15%
21 DAA, Table 10
  Observed efficacy (%) of L-glufosinate ammonium (150 g a.i./ha): 20%
21 DAA, Table 12
  Observed efficacy (%) of L-glufosinate ammonium (150 g a.i./ha): 20%
21 DAA, Table 15
  Observed efficacy (%) of L-glufosinate ammonium (150 g a.i./ha): 38%
21 DAA, Table 16
  Observed efficacy (%) of L-glufosinate ammonium (150 g a.i./ha): 35%
21 DAA, Table 17
  Observed efficacy (%) of L-glufosinate ammonium (150 g a.i./ha): 25%
21 DAA, Table 18
  Observed efficacy (%) of L-glufosinate ammonium (150 g a.i./ha): 60%
28 DAA, Table 8
  Observed efficacy (%) of L-glufosinate ammonium (150 g a.i./ha): 10%
28 DAA, Table 9
  Observed efficacy (%) of L-glufosinate ammonium (150 g a.i./ha): 5%
28 DAA, Table 12
  Observed efficacy (%) of L-glufosinate ammonium (150 g a.i./ha): 10%
28 DAA, Table 14
  Observed efficacy (%) of L-glufosinate ammonium (150 g a.i./ha): 40%
28 DAA, Table 15
  Observed efficacy (%) of L-glufosinate ammonium (150 g a.i./ha): 30%
28 DAA, Table 17
  Observed efficacy (%) of L-glufosinate ammonium (150 g a.i./ha): 20%
28 DAA, Table 18
  Observed efficacy (%) of L-glufosinate ammonium (150 g a.i./ha): 50%
35 DAA, Table 15
  Observed efficacy (%) of L-glufosinate ammonium (150 g a.i./ha): 20%
35 DAA, Table 17
  Observed efficacy (%) of L-glufosinate ammonium (150 g a.i./ha): 18%

## CCc1cccc(C)c1N(COC(C)C)C(=O)CCl [Propisochlor]
7 DAA, Table 13
  Observed efficacy (%) of Propisochlor (540 g a.i./ha): 0%
14 DAA, Table 13
  Observed efficacy (%) of Propisochlor (540 g a.i./ha): 0%

## Cn1nc(C(F)(F)F)c(CS(=O)(=O)C2=NOC(C)(C)C2)c1OC(F)F [Pyroxasulfone]
7 DAA, Table 11
  Observed efficacy (%) of Pyroxasulfone (75 g a.i./ha): 5%
14 DAA, Table 11
  Observed efficacy (%) of Pyroxasulfone (75 g a.i./ha): 30%

## CCc1cccc(C)c1N(C(=O)CCl)[C@@H](C)COC [S-metolachlor]
7 DAA, Table 8
  Observed efficacy (%) of S-metolachlor (960 g a.i./ha): 5%
14 DAA, Table 8
  Observed efficacy (%) of S-metolachlor (960 g a.i./ha): 40%
21 DAA, Table 8
  Observed efficacy (%) of S-metolachlor (960 g a.i./ha): 40%
28 DAA, Table 8
  Observed efficacy (%) of S-metolachlor (960 g a.i./ha): 65%

## CCN(CC)C(=O)C(C)Oc1cccc2ccccc12 (centres unmarked) [napropamide, Napropamide]
7 DAA, Table 12
  Observed efficacy (%) of napropamide (675 g a.i./ha): 5%
14 DAA, Table 12
  Observed efficacy (%) of napropamide (675 g a.i./ha): 5%
21 DAA, Table 12
  Observed efficacy (%) of napropamide (675 g a.i./ha): 5%
28 DAA, Table 12
  Observed efficacy (%) of napropamide (675 g a.i./ha): 5%

## CCOC(=O)C(C)Oc1ccc(Oc2cnc3cc(Cl)ccc3n2)cc1 (centres unmarked) [quizalofop-ethyl, Quizalofop-ethyl]
21 DAA, Table 16
  Observed efficacy (%) of quizalofop-ethyl (25 g a.i./ha): 95%

## C[C@@H](Oc1ccc(Oc2cnc3cc(Cl)ccc3n2)cc1)C(=O)OCC1CCCO1 (some centres unmarked) [quizalofop-p-tefuryl, Quizalofop-p-tefuryl]
21 DAA, Table 17
  Observed efficacy (%) of quizalofop-p-tefuryl (25 g a.i./ha): 10%
28 DAA, Table 17
  Observed efficacy (%) of quizalofop-p-tefuryl (25 g a.i./ha): 5%
35 DAA, Table 17
  Observed efficacy (%) of quizalofop-p-tefuryl (25 g a.i./ha): 5%

## CS(=O)(=O)c1ccc(C(=O)C2C(=O)CCCC2=O)c(Cl)c1COCC(F)(F)F [tembotrione, Tembotrione]
3 DAA, Table 15
  Observed efficacy (%) of tembotrione (53 g a.i./ha): 5%
7 DAA, Table 15
  Observed efficacy (%) of tembotrione (53 g a.i./ha): 15%
14 DAA, Table 15
  Observed efficacy (%) of tembotrione (53 g a.i./ha): 40%
21 DAA, Table 15
  Observed efficacy (%) of tembotrione (53 g a.i./ha): 38%
28 DAA, Table 15
  Observed efficacy (%) of tembotrione (53 g a.i./ha): 35%
35 DAA, Table 15
  Observed efficacy (%) of tembotrione (53 g a.i./ha): 30%
